We go through four compounds from patent US6613788B1, “Elevation of circulating blood histamine levels” (Maxim Pharmaceuticals, Inc., priority 1996, dated 2003).

A short description of series [1]: Effect of rate and duration of histamine administration on side effects and efficacy. The following applies: administered over longer than about 30 minutes.
The conditions of series [2]: prior reports; cited from earlier work.
The procedure of series [3]: Peripheral blood venous samples were drawn in 10 ml heparinized test tubes before the onset of treatment and weekly thereafter. […] The manufacturer's instructions provided with the kit, dated June, 1989, were followed. Blood histamine levels were measured at the indicated times.
Series [4] concerns herpes simplex virus (HSV) type 2. Particulars: animals inoculated intravenously with HSV; cited from earlier work.
The target in series [5] is T1, H2-receptor (Homo sapiens, UniProt P25021). Particulars: cited from earlier work.
T1 sequence (P25021 whole entry): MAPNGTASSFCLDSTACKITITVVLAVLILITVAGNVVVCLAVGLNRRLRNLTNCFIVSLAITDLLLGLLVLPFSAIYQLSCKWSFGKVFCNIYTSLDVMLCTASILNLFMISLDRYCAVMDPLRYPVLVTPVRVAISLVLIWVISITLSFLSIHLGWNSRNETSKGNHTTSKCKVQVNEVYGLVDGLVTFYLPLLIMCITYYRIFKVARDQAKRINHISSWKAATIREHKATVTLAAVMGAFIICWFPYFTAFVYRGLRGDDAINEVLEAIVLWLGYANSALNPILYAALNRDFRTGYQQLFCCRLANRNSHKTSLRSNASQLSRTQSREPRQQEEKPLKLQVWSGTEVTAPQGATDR
In series [6] the target is T1, H2-receptor. Particulars: cited from earlier work. The source holds these as a separate data set.
Series [7] has as its system Acute Myelogenous Leukernia. Particulars: IL-2 as the single agent; cited from earlier work.

Some results are limits rather than exact numbers.

`NCCc1c[nH]cn1` [histamine]: in series [1], the “efficacy on prolonged administration” value is reported as “decreased or lack of efficacy”. The “half life in the blood” value in series [2] is listed as “five”. Moreover, the “persistence of circulating blood histamine levels” value in series [3] (even after histamine administration was discontinued) is “remained elevated for sustained periods of time”. Also, the “circulating blood histamine levels following histamine administration” value in series [3] (histamine 0.4-0.7 mg s.c. twice daily with IL-2 for 21 days, samples at least 8 hours after last injection, beneficial = at least 0.2 μmole/L) was “rose to beneficial levels”. The survival time entry in series [4] was “prolong survival time”.

Consider `CNC(=C[N+](=O)[O-])NCCSCc1ccc(CN(C)C)o1` [ranitidine], for which, on H2-receptor [5], the “effect of histamine on granulocyte mediated suppression of antibody dependent cytotoxicity of NK cells” value was “blocked”.

In the case of `CN(C)CCCSC(=N)N` [dimaprit], the “effect of histamine on granulocyte mediated suppression of antibody dependent cytotoxicity of NK cells” value on H2-receptor [5] is reported as “mimicked”. Also, the “NK cell mediated cytotoxicity” value at H2-receptor [6] was “capable of augmenting NK cell mediated cytotoxicity”.

Consider “IL-2: cytokine synthesized by T cells; human recombinant interleukin-2 (Proleukin, Eurocetus)”, for which the “fraction of AML patients with inversion of remission time” value in series [7] is listed as less than 10%.
